A word on the IC50: it is the midpoint of a concentration-inhibition curve.

This note sets out measurements from patent US10130633B2, “Compounds” (BAYER PHARMA AKTIENGESELLSCHAFT, priority 2013, dated 2018).

SMILES strings stand for the structures. Where a name gives a salt, the structure may show the parent alone. Where only a bound is given, the exact number is not on record here.

The test system of test [1] is constitutive active colorectal cancer cell (CRC) Wnt pathway. The test is described as follows: HCT116 TOPFlash cellular reporter assay (Super TopFlash luciferase), constitutive active Wnt pathway. The class given is cell-based. The settings on record: HCT116 TOP reporter cells, 36 hours incubation, luciferase expression. As to the method: In order to discover and characterize small molecules which inhibit the constitutive active colorectal cancer cell (CRC) Wnt pathway, a cellular reporter assay was employed. […] Stable transfectants were generated by cotransfection with pcDNA3 and selection of stable transfected cells with 1 mg/ml G418.
A general note: A reporter such as luciferase makes a cellular process visible.

Test [2] has as its system HCT116 FOP control reporter cell line. As to the kind of experiment: HCT116 FOPFlash control reporter assay (FOP control vector, non-functional TCF elements). The class given is cell-based. The note with it: HCT116 FOP control reporter cells, 36 hours incubation, luciferase expression. The source says: In a parallel approach, HCT116 cells were cotransfected with the FOP control vector and pcDNA3. The FOP vector is identical to the TOP construct, but it contains instead of functional TCF elements a randomized, non-functional sequence. For this transfection a stable transfected cell line was generated as well.

Take `CC(C(=O)Nc1cc(C(=O)Nc2ccc(-c3cc(F)cc(F)c3)nc2)ccc1OC(F)(F)F)N1C[C@@H]2C[C@H]1CO2` (relative stereo) [Example 180, N-[6-(3,5-difluorophenyl)pyridin-3-yl]-3-({(2R*)-2-[(1S,4S)-2-oxa-5-azabicyclo[2.2.1]hept-5-yl]propanoyl}amino)-4-(trifluoromethoxy)benzamide]: the figures for the half-maximal inhibitory concentration (IC50) in test [1] and in test [2] were 148 nM and 9.8 µM, respectively.

For `CC(C(=O)Nc1cc(C(=O)Nc2ccc(-c3cc(F)cc(F)c3)nc2)ccc1OC(F)(F)F)N1C[C@@H]2C[C@H]1CO2` (relative stereo) [Example 181, N-[6-(3,5-difluorophenyl)pyridin-3-yl]-3-({(2S*)-2-[(1S,4S)-2-oxa-5-azabicyclo[2.2.1]hept-5-yl]propanoyl}amino)-4-(trifluoromethoxy)benzamide], the IC50 is 53 nM in test [1] and ≥ 50 µM in test [2]. For `CC(C(=O)Nc1cc(NC(=O)c2ccc(-c3cc(F)cc(F)c3)nc2)ccc1OC(F)(F)F)N1C[C@@H]2C[C@H]1CO2` (relative stereo) [Example 185, 6-(3,5-difluorophenyl)-N-[3-({(2R*)-2-[(1S,4S)-2-oxa-5-azabicyclo[2.2.1]hept-5-yl]propanoyl}amino)-4-(trifluoromethoxy)phenyl] nicotinamide] the same measures were 160 nM and 10 µM.

As for `CC(C(=O)Nc1cc(NC(=O)c2ccc(-c3cccc(F)c3)nc2)ccc1OC(F)(F)F)N1C[C@@H]2C[C@H]1CO2` (relative stereo) [Example 193, 6-(3-fluorophenyl)-N-[3-({(2R*)-2-[(1S,4S)-2-oxa-5-azabicyclo[2.2.1]hept-5-yl]propanoyl}amino)-4-(trifluoromethoxy)phenyl] nicotinamide], the 50% inhibitory concentration (IC50) in test [1] (Homo sapiens, HCT-116, 36 h) came to 148 nM; in test [2] (Homo sapiens, HCT-116, 36 h), 8.8 µM. In the case of `CC(C(=O)Nc1cc(NC(=O)c2ccc(-c3cc(F)cc(F)c3)nc2)ccc1OC(F)(F)F)N1C[C@@H]2C[C@H]1CO2` (relative stereo) [Example 217, 6-(3,5-difluorophenyl)-N-[3-({(2S*)-2-[(1S,4S)-2-oxa-5-azabicyclo[2.2.1]hept-5-yl]propanoyl}amino)-4-(trifluoromethoxy)phenyl] nicotinamide], the IC50 in test [1] was 438 nM; in test [2], ≥ 50 µM. For `CC(C(=O)Nc1cc(NC(=O)c2ccc(-c3cccc(F)c3)nc2)ccc1OC(F)(F)F)N1C[C@@H]2C[C@H]1CO2` (relative stereo) [Example 222, 6-(3-fluorophenyl)-N-[3-({(2S*)-2-[(1S,4S)-2-oxa-5-azabicyclo[2.2.1]hept-5-yl]propanoyl}amino)-4-(trifluoromethoxy)phenyl] nicotinamide], the 50% inhibitory concentration (IC50) in test [1] was found to be 263 nM; in test [2] it was 15.2 µM. For the molecule `CC(C(=O)Nc1cc(C(=O)Nc2ccc(-c3cccc(F)c3)nc2)ccc1OC(F)(F)F)N1C[C@@H]2C[C@H]1CO2` (relative stereo) [Example 243, N-[6-(3-fluorophenyl)pyridin-3-yl]-3-({(2R*)-2-[(1S,4S)-2-oxa-5-azabicyclo[2.2.1]hept-5-yl]propanoyl}amino)-4-(trifluoromethoxy)benzamide], the half-maximal inhibitory concentration (IC50) in test [1] came to 28 nM; in test [2], 7.7 µM. For `CC(C(=O)Nc1cc(C(=O)Nc2ccc(-c3cccc(F)c3)nc2)ccc1OC(F)(F)F)N1C[C@@H]2C[C@H]1CO2` (relative stereo) [Example 244, N-[6-(3-fluorophenyl)pyridin-3-yl]-3-({(2S*)-2-[(1S,4S)-2-oxa-5-azabicyclo[2.2.1]hept-5-yl]propanoyl}amino)-4-(trifluoromethoxy)benzamide], the half-inhibitory concentration (IC50) was 120 nM in test [1] and ≥ 50 µM in test [2]. Regarding `C[C@@H](C(=O)Nc1cc(C(=O)Nc2ccc(-c3ccc(N(C)C)cc3)nc2)ccc1OC(F)(F)F)N1CCOCC1` (single isomer, unassigned) [Example 116, N-{6-[4-(dimethylamino)phenyl]pyridin-3-yl}-3-{[(2S)-2-(morpholin-4-yl)propanoyl]amino}-4-(trifluoromethoxy)benzamide or N-{6-[4-(dimethylamino)phenyl]pyridin-3-yl}-3-{[(2R)-2-(morpholin-4-yl)propanoyl]amino}-4-(trifluoromethoxy)benzamide], the values for the half-inhibitory concentration (IC50) in test [1] and in test [2] were 84 nM and 8.1 µM, respectively.

With `C[C@@H](C(=O)Nc1cc(C(=O)Nc2ccc(-c3ccc(N)cc3)nc2)ccc1OC(F)(F)F)N1CCOCC1` (single isomer, unassigned) [Example 118, N-[6-(4-aminophenyl)pyridin-3-yl]-3-{[(2R)-2-(morpholin-4-yl)propanoyl]amino}-4-(trifluoromethoxy)benzamide or N-[6-(4-aminophenyl)pyridin-3-yl]-3-{[(2S)-2-(morpholin-4-yl)propanoyl]amino}-4-(trifluoromethoxy)benzamide], in test [2], the IC50 was ≥ 50 µM.

In the case of `C[C@@H](C(=O)Nc1cc(C(=O)Nc2ccc(-c3ccc(CO)cc3)nc2)ccc1OC(F)(F)F)N1CCOCC1` (single isomer, unassigned) [Example 119, N-{6-[4-(hydroxymethyl)phenyl]pyridin-3-yl}-3-{[(2S)-2-(morpholin-4-yl)propanoyl]amino}-4-(trifluoromethoxy)benzamide or N-{6-[4-(hydroxymethyl)phenyl]pyridin-3-yl}-3-{[(2R)-2-(morpholin-4-yl)propanoyl]amino}-4-(trifluoromethoxy)benzamide], the IC50 is 650 nM in test [1] and ≥ 50 µM in test [2]. For `C[C@@H](C(=O)Nc1cc(C(=O)Nc2ccc(-c3ccc(CO)cc3)nc2)ccc1OC(F)(F)F)N1CCOCC1` (single isomer, unassigned) [Example 120, N-{6-[4-(hydroxymethyl)phenyl]pyridin-3-yl}-3-{[(2S)-2-(morpholin-4-yl)propanoyl]amino}-4-(trifluoromethoxy)benzamide or N-{6-[4-(hydroxymethyl)phenyl]pyridin-3-yl}-3-{[(2R)-2-(morpholin-4-yl)propanoyl]amino}-4-(trifluoromethoxy)benzamide], in that order: 105 nM and ≥ 50 µM. In the case of `COc1ccc(NC(=O)c2ccc(-c3ccccc3)[nH]2)cc1NC(=O)CN1CCOCC1` [Example 24, N-{4-methoxy-3-[(morpholin-4-ylacetyl)amino]phenyl}-5-phenyl-1H-pyrrole-2-carboxamide], the half-maximal inhibitory concentration (IC50) in test [2] (Homo sapiens, HCT-116, 36 h) is ≥ 50 µM.

For `O=C(CN1CCOCC1)Nc1cc(NC(=O)c2cc(-c3ccccc3)[nH]n2)ccc1OC(F)(F)F` [Example 124, N-{3-[(morpholin-4-ylacetyl)amino]-4-(trifluoromethoxy)phenyl}-5-phenyl-1H-pyrazole-3-carboxamide], the 50% inhibitory concentration (IC50) in test [2] (Homo sapiens, HCT-116, 36 h) was ≥ 50 µM. Take `CC(C(=O)Nc1cc(C(=O)Nc2nnc(-c3ccccc3)s2)ccc1CS(C)(=O)=O)N1CCN(C)CC1` (stereo not drawn) [Example 230, 3-{[2-(4-methylpiperazin-1-yl)propanoyl]amino}-4-[(methylsulfonyl)methyl]-N-(5-phenyl-1,3,4-thiadiazol-2-yl)benzamide trifluoroacetate (1:1)]: the concentration for half-maximal inhibition (IC50) in test [1] (Homo sapiens, HCT-116, 36 h) was found to be 720 nM. Take `CC(C(=O)Nc1cc(C(=O)Nc2nnc(-c3ccccc3)s2)ccc1OC(F)(F)F)N1CCOCC1` (stereo not drawn) [Example 242, 3-{[2-(morpholin-4-yl)propanoyl]amino}-N-(5-phenyl-1,3,4-thiadiazol-2-yl)-4-(trifluoromethoxy)benzamide]: the IC50 in test [2] is ≥ 50 µM.
